The values that follow come from ChEMBL document CHEMBL1139615, “Structure-based design and synthesis of pyrazinones containing novel P1 'side pocket' moieties as inhibitors of TF/VIIa” (Bioorg Med Chem Lett, 2005).

Structures are written as SMILES.

A short description of test [1]: Inhibitory concentration against Coagulation factor Xa.
A short description of test [2]: Inhibitory concentration against Factor IIa.
For a further test, the target named is T1, Coagulation factor VII (Homo sapiens, UniProt P08709).
T1 sequence (P08709 whole entry): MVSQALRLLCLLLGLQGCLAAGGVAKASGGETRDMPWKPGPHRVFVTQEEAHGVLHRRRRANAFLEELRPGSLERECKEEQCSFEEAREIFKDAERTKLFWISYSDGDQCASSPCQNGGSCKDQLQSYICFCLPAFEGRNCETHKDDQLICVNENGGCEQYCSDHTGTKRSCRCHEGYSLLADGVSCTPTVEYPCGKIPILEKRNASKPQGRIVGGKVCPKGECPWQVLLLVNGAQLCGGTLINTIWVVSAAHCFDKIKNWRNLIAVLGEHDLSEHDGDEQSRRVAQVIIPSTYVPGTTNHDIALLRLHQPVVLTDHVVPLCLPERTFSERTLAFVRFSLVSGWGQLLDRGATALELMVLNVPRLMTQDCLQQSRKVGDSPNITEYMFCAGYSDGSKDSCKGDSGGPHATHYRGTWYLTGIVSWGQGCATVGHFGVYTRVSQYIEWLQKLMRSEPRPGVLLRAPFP
The test can be described thus: Inhibitory concentration against Coagulation factor VIIa.

Test [3] is described as follows: Inhibitory concentration against Trypsin.

The IC50 is the midpoint of a concentration-inhibition curve. A low value points to inhibition by little substance. On to `CC[C@@H](C)NC(=O)c1cc(N)cc(-c2cnc(NC(C)C)c(=O)n2CC(=O)NCc2ccc(C(=N)N)cc2C(=O)NCCN2CCOCC2)c1`, for which the IC50 was > 30000 nM in test [1], 16700 nM in test [2], 20 nM against Coagulation factor VII and 21 nM in test [3].
On the same counts, the results for `CC[C@@H](C)NC(=O)c1cc(N)cc(-c2cnc(NC(C)C)c(=O)n2CC(=O)NCc2ccc(C(=N)N)cc2C(=O)NCC(=O)O)c1` are > 30000 nM, > 30000 nM, 21 nM and 16 nM.
Turning to `CC[C@@H](C)NC(=O)c1cc(N)cc(-c2cnc(NC(C)C)c(=O)n2CC(=O)NCc2ccc(C(=N)N)cc2C(=O)NCC(=O)OC)c1`, the IC50 in test [1] was > 30000 nM; in test [2] it was 26700 nM; at Coagulation factor VII, 23 nM; in test [3], 31 nM.
Take `CC[C@@H](C)NC(=O)c1cc(N)cc(-c2cnc(NC(C)C)c(=O)n2CC(=O)NCc2ccc(C(=N)N)cc2)c1`: the IC50 was > 30000 nM in test [1], 6100 nM in test [2], 1.7 nM at Coagulation factor VII and 15 nM in test [3].
Taken in the same sequence, the figures for `CC[C@@H](C)NC(=O)c1cc(N)cc(-c2cnc(NC(C)C)c(=O)n2CC(=O)NCc2ccc(C(=N)N)cc2C(=O)O)c1` were > 30000 nM, > 30000 nM, 152 nM and 50 nM.
On the same counts, the results for `CC[C@@H](C)NC(=O)c1cc(N)cc(-c2cnc(NC(C)C)c(=O)n2CC(=O)NCc2ccc(C(=N)N)cc2C(=O)NCC(F)(F)F)c1` are > 30000 nM, 22600 nM, 12 nM and 15 nM.
On the same counts, the results for `CC[C@@H](C)NC(=O)c1cc(N)cc(-c2cnc(NC(C)C)c(=O)n2CC(=O)NCc2ccc(C(=N)N)cc2C(N)=O)c1` are > 30000 nM, 13700 nM, 6.2 nM and 20 nM.
In the case of `CC[C@@H](C)NC(=O)c1cc(N)cc(-c2cnc(NC(C)C)c(=O)n2CC(=O)NCc2ccc(C(=N)N)cc2C(=O)Nc2ccncc2)c1`, the IC50 in test [1] was > 30000 nM; in test [2], > 30000 nM; in test [3] it was 28 nM.
